67 compounds from PubChem BioAssay AID1508612 can be followed below.

As usually defined, the Papp is a coefficient for how fast a substance crosses the barrier. A higher Papp goes with fast passage.

The data set is described as follows: passive permeability, PAMPA, ADME assay (AID 1508612). As to conditions: pH 7.4, 30.0 min, 50.0 µM. (In general: PAMPA measures passive passage across an artificial lipid membrane.)

The compound `O=C1CCCC2=C1C(c1[nH]ncc1Br)N=C(Nc1nc3ccccc3o1)N2` (configuration not stated) had a Papp of 797 ×10⁻⁶ cm/s. Under `Cc1cc(NS(=O)(=O)c2ccc(NC(=O)Cc3ccc(Cl)c(Cl)c3)cc2)n(C)n1` stands 31.7 ×10⁻⁶ cm/s; under `O=C(NCCCNc1nc(Nc2cccc(CN3CCOCC3)c2)ncc1C1CC1)C1CCC1`, 905 ×10⁻⁶ cm/s; under `CNc1oc(-c2ccc(-c3ccccc3)cc2)nc1C#N`, > 1000 ×10⁻⁶ cm/s. Under `CCOc1ccc(CCN(C)C(=O)c2cc3sccc3n2Cc2ccccc2)cc1OCC` stands > 1000 ×10⁻⁶ cm/s; under `COc1ccc(-c2cn[nH]c2-c2ccc(OC)cc2)cc1`, > 1000 ×10⁻⁶ cm/s. In turn, `CCc1cccc(NC(=O)CSc2nc3ccccc3nc2N2CCCCC2)c1` had a Papp of 322 ×10⁻⁶ cm/s. In the case of `Cc1cccc(N2CCN(c3nc4ccccc4c4nnc(C)n34)CC2)c1C`, the Papp is 887 ×10⁻⁶ cm/s. Turning to `O=C1Nc2ccccc2/C1=C/c1ccnc2ccccc12`, the Papp is > 1000 ×10⁻⁶ cm/s. Under `NC(=O)C1CCN(c2nc(-c3cccc(Cl)c3)cs2)CC1` stands > 1000 ×10⁻⁶ cm/s; under `CCOC(=O)c1cnc2ccc(-c3cncc(NS(=O)(=O)c4ccccc4)c3)cn12`, 705 ×10⁻⁶ cm/s; under `O=c1[nH]nc(Sc2ncc([N+](=O)[O-])s2)n1-c1ccc2c(c1)OCCO2`, 137 ×10⁻⁶ cm/s. Under `COc1ccc(-c2csc(N3CCC(C(N)=O)CC3)n2)cc1` stands 646 ×10⁻⁶ cm/s; under `Nc1cc(-c2nc(Nc3ccc(F)c(F)c3)c3ccccc3n2)ccn1`, > 1000 ×10⁻⁶ cm/s. Consider `S=c1[nH]c2ccccc2n1CCc1ccccc1`, for which the Papp was found to be 126 ×10⁻⁶ cm/s. Under `CCOC(=O)c1nn(-c2ccccc2)c(=O)c2c(N)scc12` stands > 1000 ×10⁻⁶ cm/s. Under `CNc1nc2c(s1)C(c1ccccc1F)CC(=O)N2` (configuration not stated) stands 52 ×10⁻⁶ cm/s; under `Cc1ccnc(C)c1C(=O)Nc1cccc([S+](=O)([O-])N(C)C)c1`, 98.5 ×10⁻⁶ cm/s; under `Cc1noc(C)c1-c1ccc2ncnc(NCc3ccc4[nH]ccc4c3)c2c1`, > 1000 ×10⁻⁶ cm/s. `COc1cc([C@@H](CC(=O)O)c2ccc(C)c(CN3C[C@@H](C)Oc4ccccc4S3(=O)=O)c2)cc2nnn(C)c12` returned a Papp of 2.9 ×10⁻⁶ cm/s. Under `COC(=O)C1=COC(C)C2CN3CCc4c([nH]c5cc(OC)c(OC)cc45)C3CC12` (configuration not stated) stands 366 ×10⁻⁶ cm/s; under `CCCNC(=O)Nc1ccc(Oc2ncnc3cc(OC)c(OC)cc23)cc1Cl`, 362 ×10⁻⁶ cm/s. Under `COc1ccnc(NC(=S)N2CCN(c3ncc(C(F)(F)F)cc3Cl)CC2)c1` stands > 1000 ×10⁻⁶ cm/s. For the compound `Cc1cc(NS(=O)(=O)c2ccc(NC(=O)Cc3ccc(Cl)c(F)c3)cc2)no1`, the Papp is 11.5 ×10⁻⁶ cm/s. For the compound `Cc1ccc(CN2CCOC[C@H]2c2ncc(-c3cccc(F)c3)[nH]2)cc1`, the Papp was > 1000 ×10⁻⁶ cm/s. For the compound `O=C(NCc1ccccc1)c1cn2cc(-c3ccccc3)sc2n1`, the Papp is > 1000 ×10⁻⁶ cm/s. As to `Cc1ccc(S(=O)(=O)Nc2ccc(OC(F)(F)F)cc2C(=O)Nc2nc(-c3ccccc3)cs2)cc1`, the Papp was found to be 1.6 ×10⁻⁶ cm/s. Under `COc1cccc(NC(=S)N2CCN(c3cccc(C(F)(F)F)c3)CC2)n1` stands 735 ×10⁻⁶ cm/s.

Take `CC1CCc2cc(F)ccc2N1C(=O)CSc1nnc2c(n1)[nH]c1ccccc12` (configuration not stated): the Papp is > 1000 ×10⁻⁶ cm/s. Under `Cc1ccc(-n2nc3c(N4CCCC(C(=O)NCc5ccccc5C)C4)nnc(C)c3c2C)cc1` (configuration not stated) stands 173 ×10⁻⁶ cm/s; under `Cc1ccc(S(=O)(=O)Nc2ccccc2C(=O)Nc2ncc(-c3ccccc3)o2)cc1`, 303 ×10⁻⁶ cm/s; under `Clc1ccc(-c2nnc(C3CCCCC3)o2)cc1`, > 1000 ×10⁻⁶ cm/s. Under `COC(=O)c1ccc(Oc2nc3c(c(=O)n(C)c(=O)n3C)n2CCC(C)C)cc1` stands > 1000 ×10⁻⁶ cm/s. Under `CN1C(=O)c2ccccc2[S@](=O)c2ccc(C(=O)NCc3ccc(Br)cc3)cc21` stands > 1000 ×10⁻⁶ cm/s; under `CC[C@@H](C)Nc1cc(C(=O)NC2CC3CCC(C2)N3c2ccc(C(=O)C3CC3)cn2)c(C)cc1C(N)=O` (some centres not stated), > 1000 ×10⁻⁶ cm/s.

For the compound `COc1ccc(/C=C2/C(=O)Nc3ccccc32)cc1O`, the Papp is > 1000 ×10⁻⁶ cm/s. As to `Oc1ccc(CNc2ccccc2C(F)(F)F)c2cccnc12`, the Papp was 17 ×10⁻⁶ cm/s. Under `O=C(Nc1cc(C(F)(F)F)ccc1N1CCOCC1)c1n[nH]c(=O)c2ccccc12` stands 53.5 ×10⁻⁶ cm/s; under `COc1nccc(-c2nc(Nc3ccc(F)c(F)c3)c3ccccc3n2)c1OC`, > 1000 ×10⁻⁶ cm/s; under `COC(=O)c1ccc([C@H]2c3[nH]c4ccccc4c3C[C@H](C(=O)OC)N2C(=O)CCl)cc1`, > 1000 ×10⁻⁶ cm/s.

In turn, `CCC(CC)c1cc([C@H]2CN3CC[C@H]2C[C@@H]3CNC(C)=O)nc(-c2ccncc2)n1` registered a Papp of 994 ×10⁻⁶ cm/s.

On to `Cc1ccc(S(=O)(=O)Nc2cnccc2C(=O)Nc2nc(-c3ccccc3F)cs2)cc1`, for which the Papp was determined as 51.2 ×10⁻⁶ cm/s. Under `C[C@@H]1CC(=O)Nc2cccc(-c3cnn(C(C)(C)C)c3)c2N1` stands 56.5 ×10⁻⁶ cm/s; under `O=C(NC(c1ccccc1)c1cc(Cl)c2cccnc2c1O)c1cccnc1` (configuration not stated), 51.6 ×10⁻⁶ cm/s; under `COc1ccc(CN2CCc3c(c(=O)n4ncc(C(=O)N5CCN(c6ccccc6OC)CC5)c4n3C)C2)cc1`, 445 ×10⁻⁶ cm/s. Take `N#Cc1nc(-c2cccc3ccccc23)oc1NC1COC1`: the Papp is > 1000 ×10⁻⁶ cm/s. For `CCCCC1CCC(C(=O)Nc2ccc(S(=O)(=O)Nc3nccs3)cc2)CC1` (configuration not stated), the Papp was 587 ×10⁻⁶ cm/s. Under `CSc1ncc(Cl)c(C(=O)Nc2c(C)cccc2C)n1` stands 508 ×10⁻⁶ cm/s.

`Cc1ccc(NC(=O)CSc2ncc(S(=O)(=O)c3ccc(C(C)C)cc3)c(=O)[nH]2)cc1C`: the Papp was 1.8 ×10⁻⁶ cm/s. As to `CC(C)c1ccccc1-c1ncc(F)c(NC2(c3ccc(-c4cccnc4)cc3)CC2)n1`, the Papp is > 1000 ×10⁻⁶ cm/s. Turning to `Fc1cc(Nc2nc(-c3ccncc3)nc3ccccc23)ccc1-c1cccc(OC(F)(F)F)c1`, the Papp was 23.5 ×10⁻⁶ cm/s. Under `Cc1ccc(C(=O)NC2CCN(c3cnn(CC4CC4)c(=O)c3)CC2)cc1C` stands 473 ×10⁻⁶ cm/s; under `CN1CCN(c2ccc(Nc3nn4c(=O)c5ccccc5nc4s3)cc2)CC1`, 653 ×10⁻⁶ cm/s; under `Cn1nnnc1SCCCNCc1cccc(OCc2ccccc2Cl)c1`, > 1000 ×10⁻⁶ cm/s.

`CCOc1ccc(CCNC(=O)c2cc3cccnc3n2Cc2cccc(C)n2)cc1OCC`: the Papp was determined as 744 ×10⁻⁶ cm/s. Under `COc1ccc(C(=O)NC2CCN(c3cnn(CC4CC4)c(=O)c3)CC2)c(OC)n1` stands 550 ×10⁻⁶ cm/s; under `Nc1c(-c2ccncc2)cc[nH]c1=O`, 3.1 ×10⁻⁶ cm/s. Regarding `O=C(NCCc1cnc[nH]1)c1ccc(-c2ncc3cnc(-c4cccc(F)c4)cn23)cc1`, the Papp was < 1 ×10⁻⁶ cm/s. Under `O=C(c1cnn(-c2cccc(F)c2)c1-n1cccc1)N1CCN(c2ccccc2F)CC1` stands > 1000 ×10⁻⁶ cm/s; under `Cc1ccc(C(N)=O)cc1Nc1nccc(-c2cn(C(C)C)c3cnccc23)n1`, 877 ×10⁻⁶ cm/s. Under `O=C1c2ccccc2C2=Nc3ccccc3SC(c3ccc(Cl)cc3)C12` (configuration not stated) stands < 1 ×10⁻⁶ cm/s; under `CCOc1ccc(-c2cn3c(n2)sc2cc(C(=O)NCCCN(CC)CC)ccc23)cc1`, > 1000 ×10⁻⁶ cm/s. Under `COc1cc2c(Oc3ccc(-c4cnc(Nc5ccc(F)cc5)n(C)c4=O)cc3F)ccnc2cc1OCCCN1CCOCC1` stands 92.9 ×10⁻⁶ cm/s; under `CCN(CC)CCNC(=O)c1c(C)[nH]c(/C=C2\C(=O)Nc3ccc(F)cc32)c1C`, 235 ×10⁻⁶ cm/s; under `COc1ccccc1CNc1ccc(S(=O)(=O)Nc2nccs2)cc1`, 512 ×10⁻⁶ cm/s.

As for `Cc1ccccc1C(=O)N1CCc2cc(-c3ccnc(NC(=O)Cc4ccccc4)n3)ccc21`, the Papp was > 1000 ×10⁻⁶ cm/s. Under `O=C1Nc2ccccc2C12CC2c1cc(Cl)c(O)c(Cl)c1` (configuration not stated) stands 278 ×10⁻⁶ cm/s.
